Laboratory results published in patent publication US20240148717A1, “COMBINATION THERAPY FOR TREATMENT OF CONDITIONS ASSOCIATED WITH AGING” (priority 2021, published 2024).

Legend:
spirochetes = experiment: Case study Patient A: penicillin G, then with Lycopene and Allicin, for neuro-spirochetosis; assay type: in vivo, human; conditions: 24 million units per day intravenously every 4 hours, after a few days
Protocol: A patient (below, “Patient A”) was hospitalized on 10 Jun. 2019 and reported the following symptoms: • Fatigue; • Rash similar to a syphilis rash Patient A experienced 6 months previous; • Blurred vision; and • Headache and impaired thinking.
Based on the above results Patient A was treated with aqueous crystalline penicillin G 24 million units per day, administered intravenously every 4 hours.
On 23 Feb. […] However, other spirochetes were present which could create systemic infection. Among these bacteria, Patient A had Brachyspira, a slow-growing anaerobic spirochete that can colonize the large intestine of animals including humans. While Brachyspira is known for causing diarrhea, it was recently discovered that it could also attack other organs. It was found in the Alzheimer's brain (Miklossy, 2011 [16]) and has been recently been associated with other human chronic conditions (Hampson, 2017 [17]). One human experimental infection was recently performed, where a volunteer drank cultures of Brachyspira isolated from an Australian Aboriginal child with diarrhea, and reported headaches, among other symptoms. (Hampson, 2017 [18]).
After a number of medical consultations, Patient A agreed to follow a non-standard protocol, extending penicillin treatment s to a 6+week course for neuro-spirochetosis. […]

gray hair = experiment: Case study Patient A: hydroxychloroquine and curcumin added at end of therapy, gray hair; assay type: in vivo, human; conditions: hydroxychloroquine 200 mg per day for one month plus curcumin 3 g per day, added at end of therapy (FIG. 7)
Description: Patient reported the following improvements—including the *very surprising* disappearance of minor symptoms they had not been aware of beforehand. A summary follows: • Eyes. Vision blur resolved almost completely. • Brain. Improved cognitive functions short-and-long-term memory (they reported faster typing). • Numbness. Some minor parts of their body that had been numb since the 2008 neuropathy, such as the tips of the toes, started to regain sensitivity. • Body. Even in a condition of little exercise while being hospitalized the patient lost about 5 kg in 2 weeks and seemed more toned and in generally better condition (FIG. 2). • Asthma. Patient A reported better breathing. […] Joints in hands started swelling, and then healing (see FIG. 5). Arthritis has been reported both with spirochetes and Chlamydia Pneumoniae infections (Steere, 1987 [19], Porritt, 2016 [20]). • Prostate. Patient A never had prostate problems. However, they reported a larger urine flow and more frequent nocturnal penile tumescence. • Skin. Lesions and sclerotic plaques on their hands, which dated back from 2008, started healing. They resembled a sub-clinical manifestation of Acrodermatitis Chronica Atrophicans, which appears in phase 3 of European borreliosis (see FIG. 3). Incidentally, the healing process highlighted a small-scale bull's eye patterns, with a white patch and a red dot at the center (FIG. 4). […]

| Compound | Effect of therapy (patient feeling better, vision improving) (spirochetes) | Reversal of gray hair (gray hair) |
| --- | --- | --- |
| CC1(C)S[C@@H]2[C@H](NC(=O)Cc3ccccc3)C(=O)N2[C@H]1C(=O)O [aqueous crystalline penicillin G, penicillin G] | seemed effective |  |
| COc1cc(/C=C/C(=O)CC(=O)/C=C/c2ccc(O)c(OC)c2)ccc1O [curcumin] |  | partial reversal of gray hair |
| CCN(CCO)CCCC(C)Nc1ccnc2cc(Cl)ccc12 (stereo not drawn) [hydroxychloroquine] |  | partial reversal of gray hair |
